From ChEMBL document CHEMBL5370592, “Synthesis and Structure-Activity Relationships of a New Class of Oxadiazoles Targeting DprE1 as Antitubercular Agents” (ACS Med Chem Lett, 2023)

Tests used:
Format in all cases: functional
[1] = system: Mycobacterium tuberculosis; assay: Antitubercular activity against isonizaid/rifampicin/rifabutin-resistant Mycobacterium tuberculosis NIHA37 assessed as inhibition of bacterial growth incubated for 2 weeks; conditions: NIHA37, 336 h
[2] = system: Mycobacterium tuberculosis; assay: Antitubercular activity against extensively drug-resistant Mycobacterium tuberculosis NIH1B250 assessed as inhibition of bacterial growth incubated for 2 weeks; conditions: NIH1B250, 336 h
[3] = system: Mycobacterium tuberculosis; assay: Antitubercular activity against isoniazid/ofloxacin/prothionamide-resistant Mycobacterium tuberculosis NIH1B127 assessed as inhibition of bacterial growth incubated for 2 weeks; conditions: NIH1B127, 336 h
[4] = system: Mycobacterium tuberculosis; assay: Antitubercular activity against isoniazid/prothionamide-resistant Mycobacterium tuberculosis NIHA38 assessed as inhibition of bacterial growth incubated for 2 weeks; conditions: NIHA38, 336 h
[5] = system: Mycobacterium tuberculosis; assay: Antitubercular activity against streptomycin/D-cycloserine-resistant Mycobacterium tuberculosis NIH_G169 assessed as inhibition of bacterial growth incubated for 2 weeks; conditions: NIH_G169, 336 h
[6] = system: Mycobacterium tuberculosis; assay: Antitubercular activity against isonizaid/rifampicin/ethambutol/rifabutin/D-cycloserine-resistant Mycobacterium tuberculosis NIH_G21R assessed as inhibition of bacterial growth incubated for 2 weeks; conditions: 336 h
[7] = system: Mycobacterium tuberculosis; assay: Antitubercular activity against isoniazid/rifampicin/ethambutol/pyrazinamide/streptomycin/kanamycin/para-aminosalicylic acid/prothionamide-resistant Mycobacterium tuberculosis K33b00MR assessed as inhibition of bacterial growth incubated for 2 weeks; conditions: 336 h
[8] = system: Mycobacterium tuberculosis; assay: Antitubercular activity against isoniazid/rifampicin/ethambutol/pyrazinamid/rifabutin/prothionamide-resistant Mycobacterium tuberculosis K25b00MR assessed as inhibition of bacterial growth incubated for 2 weeks; conditions: 336 h
[9] = system: Mycobacterium tuberculosis; assay: Antitubercular activity against isoniazid/prothionamide-resistant Mycobacterium tuberculosis NIHB140 assessed as inhibition of bacterial growth incubated for 2 weeks; conditions: NIHB140, 336 h
[10] = system: Mycobacterium tuberculosis; assay: Antitubercular activity against isoniazid/rifampicin/ethambutol/streptomycin/D-cycloserine/rifabutin-resistant Mycobacterium tuberculosis NIH_G19R assessed as inhibition of bacterial growth incubated for 2 weeks; conditions: 336 h
[11] = system: Mycobacterium tuberculosis; assay: Antitubercular activity against isonizaid/rifampicin/streptomycin/ethionamide-resistant Mycobacterium tuberculosis NIH_G79 assessed as inhibition of bacterial growth incubated for 2 weeks; conditions: NIH_G79, 336 h
[12] = system: Mycobacterium tuberculosis; assay: Antitubercular activity against isoniazid/rifampicin/ethambutol/rifabutin-resistant Mycobacterium tuberculosis K18b01MR assessed as inhibition of bacterial growth incubated for 2 weeks; conditions: 336 h
[13] = system: Mycobacterium tuberculosis; assay: Antitubercular activity against extensively drug-resistant Mycobacterium tuberculosis 026K111 assessed as inhibition of bacterial growth incubated for 2 weeks; conditions: 026K111, 336 h
[14] = system: Mycobacterium tuberculosis; assay: Antitubercular activity against isoniazid/rifampicin/ethambutol/streptomycin-resistant Mycobacterium tuberculosis K21b00MR assessed as inhibition of bacterial growth incubated for 2 weeks; conditions: 336 h
[15] = system: Mycobacterium tuberculosis; assay: Antitubercular activity against isoniazid/rifampicin/ethambutol/pyrazinamid/rifabutin-resistant Mycobacterium tuberculosis K26b00MR assessed as inhibition of bacterial growth incubated for 2 weeks; conditions: 336 h
[16] = system: Mycobacterium tuberculosis; assay: Antitubercular activity against isoniazid/rifampicin/ethambutol/para-aminosalicylic acid/kanamycin/ofloxacin/prothionamide-resistant Mycobacterium tuberculosis Kb019 assessed as inhibition of bacterial growth incubated for 2 weeks; conditions: Kb019, 336 h
[17] = system: Mycobacterium tuberculosis; assay: Antitubercular activity against isoniazid/ethionamide/D-cycloserine-resistant Mycobacterium tuberculosis NIH_G17R assessed as inhibition of bacterial growth incubated for 2 weeks; conditions: 336 h
[18] = system: Mycobacterium tuberculosis; assay: Antitubercular activity against isoniazid/rifampicin/ethambutol/rifabutin-resistant Mycobacterium tuberculosis K22b00MR assessed as inhibition of bacterial growth incubated for 2 weeks; conditions: 336 h
[19] = system: Mycobacterium tuberculosis; assay: Antitubercular activity against isoniazid/rifampicin/ethambutol/pyrazinamide/streptomycin/kanamycin-resistant Mycobacterium tuberculosis K20b00MR assessed as inhibition of bacterial growth incubated for 2 weeks; conditions: 336 h
[20] = system: Mycobacterium tuberculosis; assay: Antitubercular activity against extensively drug-resistant Mycobacterium tuberculosis clinical strain 00202293 assessed as inhibition of bacterial growth incubated for 2 weeks; conditions: Mycobacterium tuberculosis, 00202293, 336 h
[21] = system: Mycobacterium tuberculosis; assay: Antitubercular activity against extensively drug-resistant Mycobacterium tuberculosis NIHB13 assessed as inhibition of bacterial growth incubated for 2 weeks; conditions: NIHB13, 336 h
[22] = system: Mycobacterium tuberculosis; assay: Antitubercular activity against isoniazid/rifampicin/ethambutol/rifabutin-resistant Mycobacterium tuberculosis NIH_G10R assessed as inhibition of bacterial growth incubated for 2 weeks; conditions: 336 h
[23] = system: Mycobacterium tuberculosis; assay: Antitubercular activity against isoniazid/ethionamide-resistant Mycobacterium tuberculosis NIH1B21 assessed as inhibition of bacterial growth incubated for 2 weeks; conditions: NIH1B21, 336 h
[24] = system: Mycobacterium tuberculosis; assay: Antitubercular activity against isonizaid/rifampicin/ethionamide/prothionamide-resistant Mycobacterium tuberculosis NIHA48 assessed as inhibition of bacterial growth incubated for 2 weeks; conditions: NIHA48, 336 h
[25] = system: Mycobacterium tuberculosis; assay: Antitubercular activity against extensively drug-resistant Mycobacterium tuberculosis clinical strain X37b00XR assessed as inhibition of bacterial growth incubated for 2 weeks; conditions: 336 h
[26] = system: Mycobacterium tuberculosis; assay: Antitubercular activity against isoniazid/rifampicin/streptomycin/para-aminosalicylic acid/ofloxacin-resistant Mycobacterium tuberculosis K29b00MR assessed as inhibition of bacterial growth incubated for 2 weeks; conditions: 336 h
[27] = system: Mycobacterium tuberculosis; assay: Antitubercular activity against isoniazid/rifampicin/streptomycin-resistant Mycobacterium tuberculosis clinical strain 01291696 assessed as inhibition of bacterial growth incubated for 2 weeks; conditions: Mycobacterium tuberculosis, 01291696, 336 h
[28] = system: Mycobacterium tuberculosis; assay: Antitubercular activity against isoniazid/rifampicin/pyrazinamide/prothionamide/rifabutin/ofloxacin/moxifloxacin/levofloxacin-resistant Mycobacterium tuberculosis NIHB188 assessed as inhibition of bacterial growth incubated for 2 weeks; conditions: NIHB188, 336 h
[29] = system: Mycobacterium tuberculosis; assay: Antitubercular activity against isonizaid/rifampicin/ethambutol/rifabutin-resistant Mycobacterium tuberculosis NIH_G22R assessed as inhibition of bacterial growth incubated for 2 weeks; conditions: 336 h
[30] = system: Mycobacterium tuberculosis; assay: Antitubercular activity against ethionamide-resistant Mycobacterium tuberculosis NIH_G145 assessed as inhibition of bacterial growth incubated for 2 weeks; conditions: NIH_G145, 336 h
[31] = system: Mycobacterium tuberculosis; assay: Antitubercular activity against isoniazid/rifampicin/kanamycin/pyrazinamide/capreomycin/amikacin/prothionamide/D-cycloserine-resistant Mycobacterium tuberculosis K32b00MR assessed as inhibition of bacterial growth incubated for 2 weeks; conditions: 336 h
[32] = system: Mycobacterium tuberculosis; assay: Antitubercular activity against isoniazid/ethambutol/prothionamide/D-cycloserine/ofloxacin/levofloxacin/pyrazinamide-resistant Mycobacterium tuberculosis NIH1B314 assessed as inhibition of bacterial growth incubated for 2 weeks; conditions: NIH1B314, 336 h
[33] = system: Mycobacterium tuberculosis; assay: Antitubercular activity against rifampicin/isoniazid/streptomycin/prothionamide-resistant Mycobacterium tuberculosis NIHB43 assessed as inhibition of bacterial growth incubated for 2 weeks; conditions: NIHB43, 336 h
[34] = system: Mycobacterium tuberculosis; assay: Antitubercular activity against isoniazid/rifampicin/ethambutol/pyrazinamide/prothionamide/ofloxacin/levofloxacin/rifabutin-resistant Mycobacterium tuberculosis NIHB270 assessed as inhibition of bacterial growth incubated for 2 weeks; conditions: NIHB270, 336 h
[35] = system: Mycobacterium tuberculosis; assay: Antitubercular activity against isonizaid/rifampicin/ethambutol/rifabutin-resistant Mycobacterium tuberculosis NIH_G269DR assessed as inhibition of bacterial growth incubated for 2 weeks; conditions: 336 h
[36] = system: Mycobacterium tuberculosis; assay: Antitubercular activity against isoniazid/rifampicin/para-aminosalicylic acid/ofloxacin/prothionamide-resistant Mycobacterium tuberculosis NIHB67 assessed as inhibition of bacterial growth incubated for 2 weeks; conditions: NIHB67, 336 h
[37] = system: Mycobacterium tuberculosis; assay: Antitubercular activity against extensively drug-resistant Mycobacterium tuberculosis 028K111 assessed as inhibition of bacterial growth incubated for 2 weeks; conditions: 028K111, 336 h
[38] = system: Mycobacterium tuberculosis; assay: Antitubercular activity against extensively drug-resistant Mycobacterium tuberculosis NIH1B178 assessed as inhibition of bacterial growth incubated for 2 weeks; conditions: NIH1B178, 336 h
[39] = system: Mycobacterium tuberculosis; assay: Antitubercular activity against ethambutol/D-cycloserine-resistant Mycobacterium tuberculosis NIH_G11R assessed as inhibition of bacterial growth incubated for 2 weeks; conditions: 336 h
[40] = system: Mycobacterium tuberculosis; assay: Antitubercular activity against isoniazid/rifampicin/ethambutol/pyrazinamide/rifabutin/prothionamide-resistant Mycobacterium tuberculosis NIHB302 assessed as inhibition of bacterial growth incubated for 2 weeks; conditions: NIHB302, 336 h
[41] = system: Mycobacterium tuberculosis; assay: Antitubercular activity against isoniazid/rifampicin/moxifloxacin-resistant Mycobacterium tuberculosis NIH_G76MR assessed as inhibition of bacterial growth incubated for 2 weeks; conditions: 336 h
[42] = system: Mycobacterium tuberculosis; assay: Antitubercular activity against isoniazid/rifampicin/moxifloxacin-resistant Mycobacterium tuberculosis NIH_G367DR assessed as inhibition of bacterial growth incubated for 2 weeks; conditions: 336 h
[43] = system: Mycobacterium tuberculosis; assay: Antitubercular activity against isoniazid/rifampicin/para-aminosalicylic acid/pyrazinamide/prothionamide/rifabutin-resistant Mycobacterium tuberculosis NIHB68 assessed as inhibition of bacterial growth incubated for 2 weeks; conditions: NIHB68, 336 h

Measured: MIC

COc1nc2ccc(Br)cc2cc1[C@@H](c1ccccc1)[C@@](O)(CCN(C)C)c1cccc2ccccc12 [BEDAQUILINE]
< 0.02 µM: [19] | [32] | [41] | [42]
0.04 µM: [12] | [28] | [40]
0.02 µM: [6] | [20]
0.2 µM: [13] | [26] | [30]
0.07 µM: [2] | [7] | [11] | [14] | [16] | [23] | [34]
0.15 µM: [5] | [18] | [37] | [39]
0.05 µM: [1] | [4] | [9] | [21] | [27] | [33] | [38]
0.3 µM: [36]
0.1 µM: all other assays above
